From PubChem BioAssay AID743481 (Broad Institute, 2014)
Active and inactive are the calls of the source.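 How the source made its calls: active means compounds lowering cell ATP signal whose fitted AC50 is at most twice their highest tested dose; inconclusive means flat curve with moderate signal loss, or unreliable fit; inactive means the rest.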

Test system: not listed separately
Test: cytotoxicity in HEK293T cells, dose response, cytotoxicity control, cell-based, CellTiter-Glo luminescence, dry powder (AID 743481)
Settings: HEK293T viability, ATP luminescence, 72 h; at 26 µM (top of the series)

Row | SMILES | activity change, negative = cytotoxicity
1 | C[C@H](CO)N1C[C@H](C)[C@H](CN(C)C(=O)Nc2cccc3ccccc23)OCCCC[C@H](C)Oc2ccc(NC(=O)NC3CCCCC3)cc2C1=O | -18.8% (inactive)
2 | C[C@H](CO)N1C[C@H](C)[C@H](CN(C)C(=O)Nc2ccc(F)cc2)OCCCC[C@H](C)Oc2ccc(NC(=O)C3CCOCC3)cc2C1=O | -1.32% (inactive)
3 | C[C@H](CO)N1C[C@H](C)[C@H](CN(C)C(=O)Nc2ccc(F)cc2)OCCCC[C@H](C)Oc2ccc(NC(=O)C3CCCC3)cc2C1=O | 9.39% (inactive)
4 | C[C@H](CO)N1C[C@H](C)[C@H](CN(C)C(=O)Nc2ccc(F)cc2)OCCCC[C@H](C)Oc2ccc(NC(=O)C3CC3)cc2C1=O | -1.35% (inactive)
5 | C[C@H](CO)N1C[C@H](C)[C@H](CN(C)C(=O)Nc2ccc(F)cc2)OCCCC[C@H](C)Oc2ccc(NC(=O)Nc3ccc(F)cc3)cc2C1=O | -12.4% (inactive)
6 | C[C@@H]1CCCCO[C@H](CN(C)C(=O)Nc2cccc3ccccc23)[C@@H](C)CN([C@@H](C)CO)C(=O)c2cc(NC(=O)C3CCCCC3)ccc2O1 | 6.63% (inactive)
7 | C[C@H](CO)N1C[C@H](C)[C@H](CN(C)C(=O)Nc2ccc3c(c2)OCO3)OCCCC[C@H](C)Oc2ccc(NC(=O)NC3CCCCC3)cc2C1=O | -11.1% (inactive)
8 | C[C@H]1CCCCO[C@@H](CN(C)C(=O)Nc2cccc3ccccc23)[C@@H](C)CN([C@@H](C)CO)C(=O)c2cc(NC(=O)C3CCCCC3)ccc2O1 | -14.3% (inactive)
9 | C[C@H](CO)N1C[C@H](C)[C@H](CN(C)C(=O)Nc2ccc(F)cc2)OCCCC[C@H](C)Oc2ccc(NC(=O)Nc3ccccc3)cc2C1=O | -10.5% (inactive)
10 | C[C@@H]1CCCCO[C@@H](CN(C)C(=O)Nc2cccc3ccccc23)[C@@H](C)CN([C@H](C)CO)C(=O)c2cc(NC(=O)C3CCCCC3)ccc2O1 | -15.4% (inactive)
11 | C[C@H](CO)N1C[C@H](C)[C@H](CN(C)C(=O)Nc2ccc3ccccc3c2)OCCCC[C@H](C)Oc2ccc(NC(=O)C3CCCCC3)cc2C1=O | 7.21% (inactive)
12 | C[C@H](CO)N1C[C@H](C)[C@H](CN(C)C(=O)Nc2ccccc2)OCCCC[C@H](C)Oc2ccc(NC(=O)Nc3ccc4c(c3)OCO4)cc2C1=O | -5.94% (inactive)
13 | C[C@@H]1CCCCO[C@@H](CN(C)C(=O)Nc2cccc3ccccc23)[C@@H](C)CN([C@@H](C)CO)C(=O)c2cc(NC(=O)C3CCCCC3)ccc2O1 | -16.3% (inactive)
14 | C[C@H](CO)N1C[C@H](C)[C@H](CN(C)C(=O)Nc2ccccc2)OCCCC[C@H](C)Oc2ccc(NC(=O)CCC(F)(F)F)cc2C1=O | -6.87% (inactive)
15 | C[C@H]1CCCCO[C@@H](CN(C)C(=O)Nc2ccc(F)cc2)[C@@H](C)CN([C@@H](C)CO)C(=O)c2cc(NC(=O)C3CCCCC3)ccc2O1 | -15.6% (inactive)
16 | C[C@@H]1CCCCO[C@H](CN(C)C(=O)Nc2cccc3ccccc23)[C@H](C)CN([C@@H](C)CO)C(=O)c2cc(NC(=O)C3CCCCC3)ccc2O1 | -10.3% (inactive)
17 | C[C@H](CO)N1C[C@H](C)[C@H](CN(C)C(=O)Nc2ccccc2)OCCCC[C@H](C)Oc2ccc(NC(=O)Nc3ccccc3)cc2C1=O | 0.603% (inactive)
18 | C[C@H](CO)N1C[C@H](C)[C@H](CN(C)C(=O)Nc2ccc(F)cc2)OCCCC[C@H](C)Oc2ccc(NC(=O)C3CCC3)cc2C1=O | -3.85% (inactive)
19 | C[C@H](CO)N1C[C@H](C)[C@H](CN(C)C(=O)Nc2ccccc2)OCCCC[C@H](C)Oc2ccc(NC(=O)NC3CCCCC3)cc2C1=O | -8.51% (inactive)
20 | CC(=O)Nc1ccc2c(c1)C(=O)N([C@H](C)CO)C[C@H](C)[C@H](CN(C)C(=O)Nc1ccc(F)cc1)OCCCC[C@H](C)O2 | -16.5% (inactive)
21 | C[C@H](CO)N1C[C@H](C)[C@H](CN(C)C(=O)Nc2ccc(F)cc2)OCCCC[C@H](C)Oc2ccc(NC(=O)C3CCCCCC3)cc2C1=O | -6.61% (inactive)
22 | COc1ccc(NC(=O)N(C)C[C@@H]2OCCCC[C@H](C)Oc3ccc(NC(=O)C4CCCCC4)cc3C(=O)N([C@H](C)CO)C[C@@H]2C)cc1 | -7.25% (inactive)

Row | SMILES | activity change, negative = cytotoxicity
23 | C[C@H](CO)N1C[C@H](C)[C@H](CN(C)C(=O)Nc2cccc3ccccc23)OCCCC[C@H](C)Oc2ccc(NC(=O)c3ccccc3)cc2C1=O | -8.78% (inactive)
24 | Cc1ccc(NC(=O)N(C)C[C@@H]2OCCCC[C@H](C)Oc3ccc(NC(=O)C4CCCCC4)cc3C(=O)N([C@H](C)CO)C[C@@H]2C)cc1 | 9.91% (inactive)
25 | C[C@@H]1CN([C@@H](C)CO)C(=O)c2cc(NC(=O)C3CCCCC3)ccc2O[C@@H](C)CCCCO[C@@H]1CN(C)C(=O)Nc1cccc2ccccc12 | -17% (inactive)
26 | C[C@H](CO)N1C[C@H](C)[C@H](CN(C)C(=O)Nc2cccc3ccccc23)OCCCC[C@H](C)Oc2ccc(NC(=O)CCC(F)(F)F)cc2C1=O | 24.6% (inactive)
27 | C[C@H](CO)N1C[C@H](C)[C@H](CN(C)C(=O)Nc2ccc(C(F)(F)F)cc2)OCCCC[C@H](C)Oc2ccc(NC(=O)NC3CCCCC3)cc2C1=O | 5.48% (inactive)
28 | COc1ccc(NC(=O)N(C)C[C@@H]2OCCCC[C@H](C)Oc3ccc(NC(=O)NC4CCCCC4)cc3C(=O)N([C@H](C)CO)C[C@@H]2C)cc1 | -10.6% (inactive)
29 | C[C@@H]1CCCCO[C@@H](CN(C)C(=O)Nc2cccc3ccccc23)[C@H](C)CN([C@@H](C)CO)C(=O)c2cc(NC(=O)C3CCCCC3)ccc2O1 | -12.5% (inactive)
30 | C[C@@H]1CCCCO[C@H](CN(C)C(=O)Nc2cccc3ccccc23)[C@@H](C)CN([C@H](C)CO)C(=O)c2cc(NC(=O)C3CCCCC3)ccc2O1 | -3.68% (inactive)
31 | C[C@H](CO)N1C[C@H](C)[C@H](CN(C)C(=O)Nc2cccc3ccccc23)OCCCC[C@H](C)Oc2ccc(NC(=O)C3CCCCC3)cc2C1=O | -4.95% (inactive)
32 | CC(C)(C)c1ccc(-c2nc(-c3ccncc3)no2)cc1 | -16.3% (inactive)
33 | C[C@H](CO)N1C[C@H](C)[C@@H](CN(C)C(=O)Nc2cccc3ccccc23)OCCCC[C@H](C)Oc2ccc(NC(=O)C3CCCCC3)cc2C1=O | -7.19% (inactive)
34 | C[C@H](CO)N1C[C@H](C)[C@H](CN(C)C(=O)Nc2ccc(F)cc2)OCCCC[C@H](C)Oc2ccc(NC(=O)NC3CCCCC3)cc2C1=O | -9.87% (inactive)
35 | C[C@H](CO)N1C[C@H](C)[C@H](CN(C)C(=O)Nc2ccc(Cl)cc2)OCCCC[C@H](C)Oc2ccc(NC(=O)C3CCCCC3)cc2C1=O | -12.5% (inactive)
36 | C[C@H](CO)N1C[C@H](C)[C@H](CN(C)C(=O)Nc2ccc3c(c2)OCO3)OCCCC[C@H](C)Oc2ccc(NC(=O)C3CCCCC3)cc2C1=O | 2.78% (inactive)
37 | C[C@H](CO)N1C[C@H](C)[C@H](CN(C)C(=O)Nc2ccccc2F)OCCCC[C@H](C)Oc2ccc(NC(=O)C3CCCCC3)cc2C1=O | -11.7% (inactive)
38 | C[C@H]1CCCCO[C@@H](CN(C)C(=O)Nc2ccc3c(c2)OCO3)[C@@H](C)CN([C@@H](C)CO)C(=O)c2cc(NC(=O)NC3CCCCC3)ccc2O1 | -7.34% (inactive)
39 | C[C@H]1CCCCO[C@@H](CN(C)C(=O)Nc2ccccc2)[C@@H](C)CN([C@@H](C)CO)C(=O)c2cc(NC(=O)NC3CCCCC3)ccc2O1 | 3.42% (inactive)
40 | C[C@H](CO)N1C[C@H](C)[C@H](CN(C)C(=O)Nc2ccc(F)cc2)OCCCC[C@H](C)Oc2ccc(NC(=O)C3CCCCC3)cc2C1=O | -7.09% (inactive)
41 | C[C@@H]1CCCCO[C@@H](CN(C)C(=O)Nc2cccc3ccccc23)[C@H](C)CN([C@H](C)CO)C(=O)c2cc(NC(=O)C3CCCCC3)ccc2O1 | -11.7% (inactive)
42 | C[C@H](CO)N1C[C@H](C)[C@H](CN(C)C(=O)Nc2cccc(F)c2)OCCCC[C@H](C)Oc2ccc(NC(=O)C3CCCCC3)cc2C1=O | 9.35% (inactive)
43 | C[C@@H]1CCCCO[C@H](CN(C)C(=O)Nc2cccc3ccccc23)[C@H](C)CN([C@H](C)CO)C(=O)c2cc(NC(=O)C3CCCCC3)ccc2O1 | 3.66% (inactive)
44 | C[C@H](CO)N1C[C@H](C)[C@H](CN(C)C(=O)Nc2ccccc2)OCCCC[C@H](C)Oc2ccc(NC(=O)C3CCCCC3)cc2C1=O | -9.15% (inactive)

Test system: HEK293T viability, ATP luminescence, 72 h
Test: as above
Settings: not given

Row | SMILES | AC50
45 | C[C@@H]1CN([C@@H](C)CO)C(=O)c2cc(NC(=O)C3CCCCC3)ccc2O[C@@H](C)CCCCO[C@H]1CN(C)C(=O)Nc1cccc2ccccc12 | 7.74 µM
46 | C[C@H]1CCCCO[C@@H](CN(C)S(=O)(=O)c2ccc(Cl)cc2)[C@@H](C)CN([C@@H](C)CO)C(=O)c2cc(NC(=O)NC3CCCCC3)ccc2O1 | 15.8 µM
47 | COc1ccc(S(=O)(=O)N(C)C[C@@H]2OCCCC[C@H](C)Oc3ccc(NS(=O)(=O)c4ccc(Cl)cc4)cc3C(=O)N([C@@H](C)CO)C[C@@H]2C)cc1 | 16.4 µM
48 | C[C@H](CO)N1C[C@H](C)[C@H](CN(C)C(=O)Nc2ccc(C(F)(F)F)cc2)OCCCC[C@H](C)Oc2ccc(NC(=O)CCC(F)(F)F)cc2C1=O | > 52 µM (inactive)
